{
  "source": "paper PMC6127092",
  "about": "“Polymeric nanocapsules embedded with ultra-small silver nanoclusters for synergistic pharmacology and improved oral delivery of Docetaxel” (Scientific Reports, 2018)",
  "key": {"[1]": {"test": "In vitro DTX release and release model fitting", "format": "physicochemical", "source_text": "Error bar represents Mean ± S.D. of three experiments.\nTo further probe into the release mechanism, different mathematical models were applied to the dissolution data."}, "[2]": {"test": "Biocompatibility, trypan blue assay", "format": "cell-based", "details": "fresh human macrophages isolated from blood", "experimental": "The biocompatibility of the NCs and DTX-Ag-NCPs was assessed against the fresh human macrophages. The macrophages were isolated from fresh human blood using Ficoll-Gastrografin gradient method.^6 Macrophages were suspended in RPMI media and incubated in CO2 incubator."}, "[3]": {"test": "Oral bioavailability and pharmacokinetics", "format": "in vivo, rabbits", "details": "rabbit", "experimental": "All the animal studies were conducted in compliance to the approved protocol of Bio-Ethical Committee of Quaid-i-Azam University Islamabad, Pakistan (Protocol No. BEC-FBS-QAU-20). Oral bioavailability studies of NCs were conducted in rabbits. The rabbits were divided into 3 groups (n=5) and kept in the animal house with free access to food and water. […] The samples (10mg/kg) were orally administered through gavage needle. Blood samples were withdrawn from ear marginal vein of each rabbit at predefined time interval using 1 ml sterile syringe each time. The plasma was separated from blood samples and stored at -20 °C till further used for analysis.^7,8 The drug was extracted from plasma samples and was analyzed using HPLC method described earlier."}, "[4]": {"test_system": "Swiss albino mice", "details": "mouse, in vivo", "experimental": "After 14 days, the complete blood count (CBC) was performed on blood and plasma was carefully collected and LFTs, RFTs, glucose, total protein and cholesterol were analyzed."}, "[5]": {"test_system": "Swiss albino mice", "details": "mouse, in vivo, po, 10 mg/kg", "quoted_text": "(§1) Female Swiss albino mice weighing 32 ± 5 g, were divided into 4 groups (n = 5) and were kept to free access of food and water at controlled environment. […] The dose (10 mg/kg) was administered orally through gavage. […] After 14 days, the blood was withdrawn for serum biochemistry analysis and mice were sacrificed for tissue histology studies[49]."}, "[6]": {"details": "rabbit, in vivo, cited from earlier work"}, "[7]": {"test_system": "breast cancer (MDA-MB-231) cell line", "test": "Cytotoxic synergism study, MTT assay", "details": "MDA-MB-231, MTT, 24 h", "quoted_text": "The cells were seeded in 96-well plate having 6000 cells/well in fetal bovine serum supplemented Dulbecco’s Modified Eagles Medium (DMEM/FBS) solution. […] Untreated cells with 100% viability were taken as control and the cells without addition of MTT were used as blank to calibrate the instrument. IC50 values for each formulation was calculated using Graphpad Prism 6.02 software[19]."}, "[8]": {"test_system": "Swiss albino mice", "test": "Acute oral toxicity (OECD 425), observation", "details": "10 mg/kg, 14 days", "quoted_text": "as §1"}, "[9]": {"details": "model fitted to dissolution data"}},
  "data": [
    {"smiles": "CC(=O)O[C@@]12CO[C@@H]1C[C@H](O)[C@@]1(C)C(=O)[C@H](O)C3=C(C)[C@@H](OC(=O)[C@H](O)[C@@H](NC(=O)OC(C)(C)C)c4ccccc4)C[C@@](O)([C@@H](OC(=O)c4ccccc4)[C@H]21)C3(C)C", "note": "[DTX, Docetaxel]", "values": [
      {"measurement": "Cumulative DTX release", "setting": "[1]; 24 h, phosphate buffer, 37 °C", "value": "about 53%"},
      {"measurement": "Higuchi KH", "setting": "[1]; [9]", "value": 10.98},
      {"measurement": "Hixon-Crowell KHC", "setting": "[1]; [9]", "value": 0.01},
      {"measurement": "Korsmeyer-Peppas N (release exponent)", "setting": "[1]; [9]", "value": 0.56},
      {"measurement": "Zero Order Ko", "setting": "[1]; [9]", "value": 3.06},
      {"measurement": "viability at 24 h, 50 µg/ml", "setting": "[2]", "value": "~65", "unit": "%"},
      {"measurement": "Cmax", "setting": "[3]; plasma, 10 mg/kg", "value": 41.8, "unit": "ng/mL"},
      {"measurement": "Tmax", "setting": "[3]; plasma, 10 mg/kg", "value": 5, "unit": "h"},
      {"measurement": "AUC(0-t)", "setting": "[3]; plasma, 10 mg/kg, read-out: AUC0–24", "value": 441, "unit": "ng·h/mL"},
      {"measurement": "MRT inf", "setting": "[3]; plasma, 10 mg/kg, read-out: MRT0-inf_obs", "value": 26.2, "unit": "h"},
      {"measurement": "AUMC0-inf_obs", "setting": "[3]; 10 mg/kg", "value": 19100.51, "unit": "ng/ml*h^2"},
      {"measurement": "Cl/F_obs", "setting": "[3]; 10 mg/kg", "value": "0.014 (mg)/(ng/ml)/h"},
      {"measurement": "t1/2", "setting": "[3]; 10 mg/kg, plasma", "value": 18.039, "unit": "h"},
      {"measurement": "Time plasma level remained above minimum effective concentration / within therapeutic window", "setting": "[3]; MEC 35 ng/mL", "value": 3, "unit": "h"},
      {"measurement": "half-life", "setting": "[3]; plasma, po, 10 mg/kg", "value": 18, "unit": "h"},
      {"measurement": "F", "setting": "[3]; relative to DTX control", "value": 1},
      {"measurement": "Hb", "setting": "[4]", "value": "13.20 ± 6.37"},
      {"measurement": "MCH", "setting": "[4]", "value": "15.54 ± 4.35"},
      {"measurement": "MCV", "setting": "[4]", "value": "57.57 ± 5.52"},
      {"measurement": "MPV", "setting": "[4]", "value": "7.11 ± 4.91"},
      {"measurement": "PCV", "setting": "[4]", "value": "54.37 ± 11.93"},
      {"measurement": "Platelets", "setting": "[4]", "value": "632 ± 87.57"},
      {"measurement": "RBC", "setting": "[4]", "value": "6.86 ± 4.91"},
      {"measurement": "RDW %", "setting": "[4]", "value": "16.92 ± 6.63", "unit": "%"},
      {"measurement": "Serum glutamic pyruvic transaminase (SGPT)", "setting": "[4]", "value": "highest level"},
      {"measurement": "WBC", "setting": "[4]", "value": "12.45 ± 7.63"},
      {"measurement": "Visible changes in skin, fur or behavioral pattern", "setting": "[5]", "value": "no visible changes"},
      {"measurement": "Minimum toxic concentration", "setting": "[6]; iv", "value": 2700, "unit": "ng/mL"},
      {"measurement": "Minimum effective concentration", "setting": "[6]", "value": 35, "unit": "ng/mL"},
      {"measurement": "IC50", "setting": "[7]", "value": 14.32, "unit": "µg/mL"},
      {"measurement": "Mortality and change in body weights", "setting": "[8]", "value": "No mortality and significant change in body weights"}
    ]}
  ]
}
